Structures can show the parent of a compound that is named as a salt.
Experiments:
Type in all cases: biochemical
[1] = biological target: Bovine LOX (Bos taurus (Bovine), UniProt P33072); experiment: LOX inhibition, peroxidase-coupled Amplex Red amine oxidase assay; conditions: 30 min preincubation at 37° C., putrescine substrate
Outline: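 Bovine LOX in 1.2 M urea, 50 mM sodium borate pH 8.2 with 1 μM mofegiline and 0.5 mM pargyline; putrescine at twice KM (e.g. 20 mM for LOX) with Amplex Red/HRP. Fluorescence (ex 565/em 590 nm) read kinetically over 30 min at 37–45 °C; IC50 from slopes.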

[2] = biological target: Recombinant human MAO-B (Homo sapiens (Human), UniProt P27338); experiment: Inhibition of human recombinant MAO-B; conditions: benzylamine 100 μM
Recombinant human MAO-B, sequence (P27338 whole entry): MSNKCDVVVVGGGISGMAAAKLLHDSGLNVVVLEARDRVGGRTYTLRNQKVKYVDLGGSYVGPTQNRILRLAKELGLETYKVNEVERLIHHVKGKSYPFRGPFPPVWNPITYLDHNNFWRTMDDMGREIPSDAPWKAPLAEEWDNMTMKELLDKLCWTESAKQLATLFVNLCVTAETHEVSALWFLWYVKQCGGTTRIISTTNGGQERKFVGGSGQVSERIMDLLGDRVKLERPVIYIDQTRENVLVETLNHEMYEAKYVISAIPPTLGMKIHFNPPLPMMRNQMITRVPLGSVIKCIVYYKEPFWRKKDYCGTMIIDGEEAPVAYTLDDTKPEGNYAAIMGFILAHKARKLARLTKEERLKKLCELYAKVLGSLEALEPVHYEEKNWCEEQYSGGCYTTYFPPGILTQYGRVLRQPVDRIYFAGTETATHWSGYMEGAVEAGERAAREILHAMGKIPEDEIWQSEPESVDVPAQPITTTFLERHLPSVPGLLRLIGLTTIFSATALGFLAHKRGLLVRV
Outline: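 Recombinant human MAO-B used as enzyme source (0.06 mg/mL, stated concentration). Run as for the human SSAO/VAP-1 assay, except benzylamine substrate at 100 μM.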

[3] = biological target: Human LOXL2 (Homo sapiens (Human), UniProt Q9Y4K0); experiment: LOXL2 inhibition, peroxidase-coupled Amplex Red amine oxidase assay; conditions: 30 min preincubation at 37° C., putrescine substrate
Human LOXL2, sequence (Q9Y4K0 26-774): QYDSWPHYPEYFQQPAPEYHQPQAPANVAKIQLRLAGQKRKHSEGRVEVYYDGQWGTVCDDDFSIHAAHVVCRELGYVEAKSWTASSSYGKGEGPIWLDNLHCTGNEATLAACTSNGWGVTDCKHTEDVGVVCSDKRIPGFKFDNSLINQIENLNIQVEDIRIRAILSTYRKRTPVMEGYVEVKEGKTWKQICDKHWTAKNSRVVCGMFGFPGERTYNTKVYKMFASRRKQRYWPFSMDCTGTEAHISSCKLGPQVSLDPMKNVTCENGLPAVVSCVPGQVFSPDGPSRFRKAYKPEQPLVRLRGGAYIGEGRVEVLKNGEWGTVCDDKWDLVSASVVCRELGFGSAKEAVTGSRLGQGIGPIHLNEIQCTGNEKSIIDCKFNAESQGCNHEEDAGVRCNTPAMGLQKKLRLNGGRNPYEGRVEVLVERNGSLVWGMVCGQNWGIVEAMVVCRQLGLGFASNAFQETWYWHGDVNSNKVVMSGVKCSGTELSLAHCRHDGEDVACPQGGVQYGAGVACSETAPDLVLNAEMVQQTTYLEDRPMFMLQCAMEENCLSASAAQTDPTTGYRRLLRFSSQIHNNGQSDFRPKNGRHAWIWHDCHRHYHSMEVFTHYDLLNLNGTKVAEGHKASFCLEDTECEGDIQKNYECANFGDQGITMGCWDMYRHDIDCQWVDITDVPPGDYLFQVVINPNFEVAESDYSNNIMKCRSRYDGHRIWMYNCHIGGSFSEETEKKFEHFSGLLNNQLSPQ
Outline: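 Enzyme in 1.2 M urea, 50 mM sodium borate pH 8.2 with 1 μM mofegiline and 0.5 mM pargyline, preincubated 30 min at 37° C with compound (11-point CRC). Putrescine at twice KM (10 mM for LOXL2) with Amplex Red/HRP; fluorescence (ex 565, em 590) read kinetically 30 min; IC50 from slopes.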

[4] = biological target: human recombinant SSAO/VAP-1 (Homo sapiens (Human), UniProt Q16853); experiment: Inhibition of human recombinant SSAO/VAP-1 amine oxidase activity; conditions: 30 min preincubation at 37° C., 600 μM benzylamine
human recombinant SSAO/VAP-1, sequence (Q16853 34-763): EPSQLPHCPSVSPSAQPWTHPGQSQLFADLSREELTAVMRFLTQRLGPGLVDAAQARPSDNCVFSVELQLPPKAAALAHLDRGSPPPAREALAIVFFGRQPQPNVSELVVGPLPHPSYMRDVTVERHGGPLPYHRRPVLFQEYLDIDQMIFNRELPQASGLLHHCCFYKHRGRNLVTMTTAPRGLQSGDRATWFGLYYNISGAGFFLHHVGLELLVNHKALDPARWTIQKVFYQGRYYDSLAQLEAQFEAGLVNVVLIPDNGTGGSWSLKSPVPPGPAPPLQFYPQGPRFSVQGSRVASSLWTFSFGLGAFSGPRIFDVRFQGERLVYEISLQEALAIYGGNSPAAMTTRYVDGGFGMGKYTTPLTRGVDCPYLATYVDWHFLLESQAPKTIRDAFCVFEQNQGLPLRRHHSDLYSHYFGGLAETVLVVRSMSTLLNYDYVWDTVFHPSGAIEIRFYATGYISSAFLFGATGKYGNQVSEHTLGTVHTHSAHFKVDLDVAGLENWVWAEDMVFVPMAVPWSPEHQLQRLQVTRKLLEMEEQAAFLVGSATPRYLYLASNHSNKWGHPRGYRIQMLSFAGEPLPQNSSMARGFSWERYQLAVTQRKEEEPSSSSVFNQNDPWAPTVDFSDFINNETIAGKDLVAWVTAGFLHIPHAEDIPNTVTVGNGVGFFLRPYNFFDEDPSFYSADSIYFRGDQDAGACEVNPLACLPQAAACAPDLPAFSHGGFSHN
Outline: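 Purified SSAO/VAP-1 (residues 34-763, expressed in CHO Lec 8 cells; 0.25 μg/mL) preincubated 30 min at 37° C with compound in 0.1 M sodium phosphate pH 7.4. Reaction mix of 600 μM benzylamine, 120 μM Amplex Red and 1.5 U/mL HRP added; fluorescence (ex 565/em 590 nm) read every 2.5 min for 30 min; IC50 from kinetic slopes over 4-11 point curves.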

Bovine LOX, sequence (P33072 170-418): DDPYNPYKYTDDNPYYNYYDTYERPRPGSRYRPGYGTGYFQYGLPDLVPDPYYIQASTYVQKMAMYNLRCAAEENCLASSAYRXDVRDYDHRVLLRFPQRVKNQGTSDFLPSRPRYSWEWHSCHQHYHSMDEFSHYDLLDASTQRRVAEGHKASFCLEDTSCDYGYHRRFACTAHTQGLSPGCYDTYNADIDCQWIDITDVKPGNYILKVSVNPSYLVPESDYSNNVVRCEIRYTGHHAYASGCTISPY

SMILES | IC50 [1] | IC50 [2] | IC50 [3] | IC50 [4]
Cc1c(-c2ccncc2)c2cc(S(C)(=O)=O)ccc2n1C/C(F)=C/CN [Compound 88, (Z)-3-fluoro-4-(2-methyl-5-(methylsulfonyl)-3-(pyridin-4-yl)-1H-indol-1-yl)but-2-en-1-amine] | > 0.3 µM | > 3 µM | < 0.3 µM | > 3 µM
Cc1cc(-c2c(C)n(C/C(F)=C/CN)c3ccc(S(C)(=O)=O)cc23)cc(C)n1 [Compound 89, (Z)-4-(3-(2,6-dimethylpyridin-4-yl)-2-methyl-5-(methylsulfonyl)-1H-indol-1-yl)-3-fluorobut-2-en-1-amine] | > 0.3 µM | > 3 µM | < 0.3 µM | > 3 µM
Cc1cc(-c2c(C)n(C/C(F)=C/CN)c3ccc(C(=O)N(C)C)cc23)cc(C)n1 [Compound 90, (Z)-1-(4-amino-2-fluorobut-2-en-1-yl)-3-(2,6-dimethylpyridin-4-yl)-N,N,2-trimethyl-1H-indole-5-carboxamide] | > 0.3 µM | > 3 µM | < 0.3 µM | > 3 µM
Cc1c(-c2ccncc2)c2cc(C(=O)NC(C)(C)C)ccc2n1C/C(F)=C/CN [Compound 91, (Z)-1-(4-amino-2-fluorobut-2-en-1-yl)-N-(tert-butyl)-2-methyl-3-(pyridin-4-yl)-1H-indole-5-carboxamide] | > 0.3 µM | > 3 µM | < 0.3 µM | > 3 µM
Cc1c(-c2ccc3c(c2)OCO3)c2cc(S(C)(=O)=O)ccc2n1C/C(F)=C/CN [Compound 92, (Z)-4-(3-(benzo[d][1,3]dioxol-5-yl)-2-methyl-5-(methylsulfonyl)-1H-indol-1-yl)-3-fluorobut-2-en-1-amine] | > 0.3 µM | > 3 µM | < 0.3 µM | > 3 µM
Cc1c(-c2ccc(F)cc2)c2cc(S(C)(=O)=O)ccc2n1C/C(F)=C/CN [Compound 93, (Z)-3-fluoro-4-(3-(4-fluorophenyl)-2-methyl-5-(methylsulfonyl)-1H-indol-1-yl)but-2-en-1-amine] | > 0.3 µM | > 3 µM | < 0.3 µM | > 3 µM
Cc1cc(-c2c(C)n(C/C(F)=C/CN)c3ccc(S(C)(=O)=O)cc23)ccn1 [Compound 94, (Z)-3-fluoro-4-(2-methyl-3-(2-methylpyridin-4-yl)-5-(methylsulfonyl)-1H-indol-1-yl)but-2-en-l-amine, Dihydrochloride] | > 0.3 µM | > 3 µM | < 0.3 µM | > 3 µM
Cc1c(-c2ccc(F)cc2)c2cc(S(N)(=O)=O)ccc2n1C/C(F)=C/CN [Compound 95, (Z)-1-(4-amino-2-fluorobut-2-en-1-yl)-3-(4-fluorophenyl)-2-methyl-1H-indole-5-sulfonamide] | > 0.3 µM | > 3 µM | < 0.3 µM | > 3 µM
CN(C)S(=O)(=O)c1cncc(-c2c(Cl)n(C/C(F)=C/CN)c3ccccc23)c1 [Compound 96, (Z)-5-(1-(4-amino-2-fluorobut-2-en-1-yl)-2-chloro-1H-indol-3-yl)-N,N-dimethylpyridine-3-sulfonamide] | > 0.3 µM | > 3 µM | < 0.3 µM | > 3 µM
Cc1c(-c2cccc(S(=O)(=O)N(C)C)c2)c2cc(S(C)(=O)=O)ccc2n1C/C(F)=C/CN [Compound 97, (Z)-3-(1-(4-amino-2-fluorobut-2-en-1-yl)-2-methyl-5-(methylsulfonyl)-1H-indol-3-yl)-N,N-dimethylbenzenesulfonamide] | > 0.3 µM | > 3 µM | < 0.3 µM | > 3 µM
COc1cc(-c2c(C)n(C/C(F)=C/CN)c3ccc(S(C)(=O)=O)cc23)ccn1 [Compound 98, (Z)-3-fluoro-4-(3-(2-methoxypyridin-4-yl)-2-methyl-5-(methylsulfonyl)-1H-indol-1-yl)but-2-en-1-amine] | > 0.3 µM | > 3 µM | < 0.3 µM | > 3 µM
CN(C)S(=O)(=O)c1cccc(-c2c(Cl)n(C/C(F)=C/CN)c3cccnc23)c1 [Compound 99, (Z)-3-(1-(4-amino-2-fluorobut-2-en-1-yl)-2-chloro-1H-pyrrolo[3,2-b]pyridin-3-yl)-N,N-dimethylbenzenesulfonamide] | > 0.3 µM | > 3 µM | < 0.3 µM | > 3 µM
CN(C)S(=O)(=O)c1cccc(-c2c(Cl)n(C/C(F)=C/CN)c3ccc(S(C)(=O)=O)cc23)c1 [Compound 100, (Z)-3-(1-(4-amino-2-fluorobut-2-en-1-yl)-2-chloro-5-(methylsulfonyl)-1H-indol-3-yl)-N,N-dimethylbenzenesulfonamide] | > 0.3 µM | > 3 µM | < 0.3 µM | > 3 µM
Cc1cc(-c2c(C)n(C/C(F)=C/CN)c3ccc([N+](=O)[O-])cc23)cc(C)n1 [Compound 101, (Z)-4-(3-(2,6-dimethylpyridin-4-yl)-2-methyl-5-nitro-1H-indol-1-yl)-3-fluorobut-2-en-1-amine] | > 0.3 µM | > 3 µM | < 0.3 µM | > 3 µM
Cc1cc(-c2c(C)n(C/C(F)=C/CN)c3ccc(NS(C)(=O)=O)cc23)cc(C)n1 [Compound 102, (Z)—N-(1-(4-amino-2-fluorobut-2-en-1-yl)-3-(2,6-dimethylpyridin-4-yl)-2-methyl-1H-indol-5-yl)methanesulfonamide Dihydrochloride] | > 0.3 µM | > 3 µM | < 0.3 µM | > 3 µM
COCc1ccc2c(n1)c(-c1cccc(S(=O)(=O)N(C)C)c1)c(C)n2C/C(F)=C/CN [Compound 103, (Z)-3-(1-(4-amino-2-fluorobut-2-en-1-yl)-5-(methoxymethyl)-2-methyl-1H-pyrrolo[3,2-b]pyridin-3-yl)-N,N-dimethylbenzenesulfonamide] | > 0.3 µM | > 3 µM | < 0.3 µM | > 3 µM
Cc1c(-c2cccc(S(=O)(=O)N(C)C)c2)c2cc(NS(C)(=O)=O)ccc2n1C/C(F)=C/CN [Compound 104, (Z)-3-(1-(4-amino-2-fluorobut-2-en-1-yl)-2-methyl-5-(methylsulfonamido)-1H-indol-3-yl)-N,N-dimethylbenzenesulfonamide Hydrochloride] | > 0.3 µM | > 3 µM | < 0.3 µM | > 3 µM
Cc1c(-c2cccc(S(=O)(=O)N(C)C)c2)c2nc(N(C)C)ccc2n1C/C(F)=C/CN [Compound 105, (Z)-3-(1-(4-amino-2-fluorobut-2-en-1-yl)-5-(dimethylamino)-2-methyl-1H-pyrrolo[3,2-b]pyridin-3-yl)-N,N-dimethylbenzenesulfonamide Dihydrochloride] | > 0.3 µM | > 3 µM | < 0.3 µM | > 3 µM
Cc1c(-c2cccc(S(=O)(=O)N(C)C)c2)c2cc(S(=O)(=O)C(C)C)ccc2n1C/C(F)=C/CN [Compound 106, (Z)-3-(1-(4-amino-2-fluorobut-2-en-1-yl)-5-(isopropylsulfonyl)-2-methyl-1H-indol-3-yl)-N,N-dimethyl-benzenesulfonamide Hydrochloride] | > 0.3 µM | > 3 µM | < 0.3 µM | > 3 µM
Cc1ccc2c(n1)c(-c1cccc(S(=O)(=O)N(C)C)c1)c(C)n2C/C(F)=C/CN [Compound 107, (Z)-3-(1-(4-amino-2-fluorobut-2-en-1-yl)-2,5-dimethyl-1H-pyrrolo[3,2-b]pyridin-3-yl)-N,N-dimethylbenzenesulfonamide Dihydrochloride] | > 0.3 µM | > 3 µM | < 0.3 µM | > 3 µM
Cc1c(-c2cccc(S(=O)(=O)N(C)C)c2)c2ncc(F)cc2n1C/C(F)=C/CN [Compound 108, (Z)-3-(1-(4-amino-2-fluorobut-2-en-1-yl)-6-fluoro-2-methyl-1H-pyrrolo[3,2-b]pyridin-3-yl)-N,N-dimethylbenzenesulfonamide] | > 0.3 µM | > 3 µM | < 0.3 µM | > 3 µM
Cc1c(-c2cccc(S(=O)(=O)N(C)C)c2)c2nc(F)ccc2n1C/C(F)=C/CN [Compound 109, (Z)-3-(1-(4-amino-2-fluorobut-2-en-1-yl)-5-fluoro-2-methyl-1H-pyrrolo[3,2-b]pyridin-3-yl)-N,N-dimethylbenzenesulfonamide] | > 0.3 µM | > 3 µM | < 0.3 µM | > 3 µM
Cc1c(-c2cccc(S(=O)(=O)N(C)C)c2)c2nc(C(F)(F)F)ccc2n1C/C(F)=C/CN [Compound 110, (Z)-3-(1-(4-amino-2-fluorobut-2-en-1-yl)-2-methyl-5-(trifluoromethyl)-1H-pyrrolo[3,2-b]pyridin-3-yl)-N,N-dimethylbenzenesulfonamide] | > 0.3 µM | > 3 µM | < 0.3 µM | > 3 µM
